Results reported in patent US20250122174A1 (Shenzhen Yuanli Shenwan Innovative Medicine Co., Ltd., priority 2022, published 2025).

target: HPK1 (Homo sapiens (Human), UniProt Q92918); assay: HPK1 Inhibition Assay (ADP-Glo kinase assay); assay type: biochemical; details: ATP 10 μM
Outline: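 ADP-Glo luminescence read-out after 1 h room-temperature kinase reaction with 10 μM ATP and 0.1 μg/ml MBP. Recombinant human HPK1 at 7.5 ng/μl; buffer 40 mM Tris pH 7.5, 20 mM MgCl2. Compounds serially diluted 5-fold over 10 points from 10 mM DMSO stock.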

Chain of HPK1 (Q92918 1-346 limits assumed): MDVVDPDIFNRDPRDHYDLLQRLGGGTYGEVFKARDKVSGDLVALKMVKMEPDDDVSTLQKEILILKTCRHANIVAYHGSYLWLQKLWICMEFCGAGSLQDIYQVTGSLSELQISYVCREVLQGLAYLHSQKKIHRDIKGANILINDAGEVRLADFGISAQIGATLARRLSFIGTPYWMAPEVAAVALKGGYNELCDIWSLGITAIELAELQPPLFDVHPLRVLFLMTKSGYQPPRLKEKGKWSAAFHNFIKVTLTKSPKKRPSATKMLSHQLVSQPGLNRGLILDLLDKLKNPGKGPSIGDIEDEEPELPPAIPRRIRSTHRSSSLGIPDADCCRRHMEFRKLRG

SMILES | IC50 [nM]
Cn1c(C(C)(C)C)nc2c(N3CC[C@@H](O)C3)c(NC(=O)c3ccc(=O)n(-c4c(F)cccc4F)n3)ccc21 [Example 102, (R)-N-(4-(2-tert-butyl)-4-(3-hydroxypyrrolidin-1-yl)-1-methyl-1H-benzo 112 midazolezol-5-yl)-1-(2,6-difluorophenyl)-6-oxo-1,6-dihydropyridazine-3-carboxamide] | < 100
C[C@H]1CN(c2c(NC(=O)c3ccc(=O)n(-c4c(F)cccc4F)n3)ccc3nn(C45CC(C4)C5)cc23)C[C@@H]1N [Example 320, N-(4-((3R,4S)-3-amino-4-methylpyrrolidin-1-yl)-2-(bicyclo[1.1.1]pentan-1-yl)-2H-indazol-5-yl)-1-(2,6-difluorophenyl)-6-oxo-1,6-dihydropyridazine-3-carboxamide] | < 100
CC(C)(C)C(C)(C)n1cc2c(N3C[C@H](N)C4(CC4)C3)c(NC(=O)c3ccc(=O)n(-c4c(F)cccc4F)n3)ccc2n1 [Example 246, (R)-N-(4-(7-amino-5-azaspiro[2.4]heptan-5-yl)-2-(2,3,3-trimethylbutan-2-yl)-2H-indazol-5-yl)-1-(2,6-difluorophenyl)-6-oxo-1,6-dihydropyridazine-3-carboxamide] | < 100
CC(C)c1nc2c(N3CC[C@@H](NCC(C)(C)O)C3)c(NC(=O)c3ccc(=O)n(-c4c(F)cccc4F)n3)ccc2n1C [Example 129, (R)-1-(2,6-difluorophenyl)-N-(4-(3-((2-hydroxy-2-methylpropyl)amino)pyrrolidin-1-yl)-2-isopropyl-1-methyl-1H-benzo[d]imidazol-5-yl)-6-oxo-1,6-dihydropyridazine-3-carboxamide] | < 100
CC(C)c1nc2c(N3CC(F)(F)C[C@H]3CN)c(NC(=O)c3ccc(=O)n(-c4c(F)cccc4F)n3)cc(F)c2n1C [Example 144, (S)-N-(4-(2-(aminomethyl)-4,4-difluoropyrrolidin-1-yl)-7-fluoro-2-isopropyl-1-methyl-1H-benzo[d]imidazol-5-yl)-1-(2,6-difluorophenyl)-6-oxo-1,6-dihydropyridazine-3-carboxamide] | < 100
[2H]C([2H])([2H])C(n1ncc2c(N3C[C@@H](N)C(C)(C)C3)c(NC(=O)c3ccc(=O)n(-c4c(F)cccc4F)n3)ccc21)C([2H])([2H])[2H] [Example 280, (S)-N-(4-(4-amino-3,3-dimethylpyrrolidin-1-yl)-1-(propan-2-yl-1,1,1,3,3,3-d6)-1H-indazol-5-yl)-1-(2,6-difluorophenyl)-6-oxo-1,6-dihydropyridazine-3-carboxamide] | < 100
CC1(C)CN(c2c(NC(=O)c3ccc(=O)n(-c4c(F)cccc4F)n3)ccc3nn([C@@H]4CCOC4)cc23)C[C@H]1N [Example 323, N-(4-((S)-4-amino-3,3-dimethylpyrrolidin-1-yl)-2-((R)-tetrahydrofuran-3-yl)-2H-indazol-5-yl)-1-(2,6-difluorophenyl)-6-oxo-1,6-dihydropyridazine-3-carboxamide] | < 100
[2H]C([2H])([2H])C([2H])(n1ncc2c(N3C[C@H](N)C(C)(C)C3)c(NC(=O)c3ccc(=O)n(-c4c(F)cccc4F)n3)ccc21)C([2H])([2H])[2H] [Example 281, (R)-N-(4-(4-amino-3,3-dimethylpyrrolidin-1-yl)-1-(propan-2-yl-d7)-1H-indazol-5-yl)-1-(2,6-difluorophenyl)-6-oxo-1,6-dihydropyridazine-3-carboxamide] | < 100
Cn1c(C(C)(C)C)nc2c(N3CCC[C@H]3CN)c(NC(=O)c3ccc(=O)n(-c4c(F)cccc4F)n3)ccc21 [Example 103] | < 100
[2H]C([2H])([2H])C(n1ncc2c(N3C[C@H](N)C(C)(C)C3)c(NC(=O)c3ccc(=O)n(-c4c(F)cccc4F)n3)ccc21)C([2H])([2H])[2H] [Example 279, (R)-N-(4-(4-amino-3,3-dimethylpyrrolidin-1-yl)-1-(propan-2-yl-1,1,1,3,3,3-d6)-1H-indazol-5-yl)-1-(2,6-difluorophenyl)-6-oxo-1,6-dihydropyridazine-3-carboxamide] | < 100
CC(C)n1ncc2c(N3CCC[C@@H](N)C3)c(NC(=O)c3ccc(=O)n(-c4c(F)cccc4F)n3)ccc21 [Example 183, (R)-N-(4-(3-aminopiperidin-1-yl)-1-isopropyl-1H-indazol-5-yl)-1-(2,6-difluorophenyl)-6-oxo-1,6-dihydropyridazine-3-carboxamide] | < 100
C[C@@H]1CN(c2c(NC(=O)c3ccc(=O)n(-c4c(F)cccc4F)n3)ccc3nn(C4(C(F)(F)F)CC4)cc23)C[C@@H]1N [Example 315, N-(4-((3R,4R)-3-amino-4-methylpyrrolidin-1-yl)-2-(1-(trifluoromethyl)cyclopropyl)-2H-indazol-5-yl)-1-(2,6-difluorophenyl)-6-oxo-1,6-dihydropyridazine-3-carboxamide] | < 100
CC[C@]1(N)CCN(c2c(NC(=O)c3ccc(=O)n(-c4c(F)cccc4F)n3)ccc3c2nc(C(C)C)n3C)C1 [Example 122, (S)-N-(4-(3-amino-3-ethylpyrrolidin-1-yl)-2-isopropyl-1-methyl-1H-benzo[d]imidazol-5-yl)-1-(2,6-difluorophenyl)-6-oxo-1,6-dihydropyridazine-3-carboxamide] | < 100
